Data published in ChEMBL document CHEMBL6120977, “Structure-Affinity-Pharmacokinetics Relationships of Novel 18F-Labeled 1,4-Diazepane Derivatives for Orexin 1 Receptor Imaging” (J Med Chem, 2024).

What was measured:
[1] = Selectivity ratio of Ki for OX2R (unknown origin) transfected in CHO cells to Ki for OX1R (unknown origin) transfected in CHO cells; type: cell-based
[2] = target: T1, Orexin/Hypocretin receptor type 1 (Homo sapiens, UniProt O43613); experiment: Displacement of [3H]SB-674042 from recombinant human OX1R extracted from HEK293T membrane by radioligand binding assay; type: cell membranes
T1 sequence (O43613 whole entry): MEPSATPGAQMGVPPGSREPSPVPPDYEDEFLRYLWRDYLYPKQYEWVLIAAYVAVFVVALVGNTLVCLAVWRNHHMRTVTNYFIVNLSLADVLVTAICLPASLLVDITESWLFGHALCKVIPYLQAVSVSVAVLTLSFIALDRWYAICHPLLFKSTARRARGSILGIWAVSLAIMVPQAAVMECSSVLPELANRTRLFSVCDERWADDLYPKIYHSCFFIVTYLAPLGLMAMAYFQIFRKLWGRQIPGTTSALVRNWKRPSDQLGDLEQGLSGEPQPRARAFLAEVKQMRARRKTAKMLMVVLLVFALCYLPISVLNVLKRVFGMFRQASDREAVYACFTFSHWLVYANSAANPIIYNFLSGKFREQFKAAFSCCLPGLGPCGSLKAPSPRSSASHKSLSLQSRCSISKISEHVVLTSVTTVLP

Orexin receptor type 2 [3] = target: T2, Orexin receptor type 2 (Homo sapiens, UniProt O43614); experiment: Displacement of [3H]EMPA from recombinant human OX2R extracted from HEK293T membrane by radioligand binding assay; type: cell membranes
T2 sequence (O43614 whole entry): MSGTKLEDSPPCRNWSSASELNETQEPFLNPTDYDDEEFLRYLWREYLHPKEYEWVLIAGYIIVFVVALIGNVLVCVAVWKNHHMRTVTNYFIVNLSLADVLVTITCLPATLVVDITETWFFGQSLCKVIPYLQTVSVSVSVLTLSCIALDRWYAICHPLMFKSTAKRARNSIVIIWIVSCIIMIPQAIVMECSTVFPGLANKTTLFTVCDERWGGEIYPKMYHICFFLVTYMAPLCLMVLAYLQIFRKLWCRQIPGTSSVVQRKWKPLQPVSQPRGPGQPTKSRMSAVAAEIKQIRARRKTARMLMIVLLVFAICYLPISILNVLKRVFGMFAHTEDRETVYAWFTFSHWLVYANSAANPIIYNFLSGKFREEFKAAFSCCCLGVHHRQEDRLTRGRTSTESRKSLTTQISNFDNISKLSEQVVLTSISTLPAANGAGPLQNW

[4] = target: T1, Orexin/Hypocretin receptor type 1; experiment: Displacement of […]5IBOM from OX1R (unknown origin) transfected in CHO cells assessed as inhibition constant incubated for 1.5 hrs by automated gamma-counter analysis; type: cell-based
Homo sapiens = species on record: Homo sapiens; experiment: Selectivity ratio of IC50 for recombinant human OX2R extracted from HEK293T cell membrane to IC50 for recombinant human OX1R extracted from HEK293T cell membrane
Orexin receptor type 2 [5] = target: T2, Orexin receptor type 2; experiment: Displacement of […]5IBOM from OX2R (unknown origin) transfected in CHO cells assessed as inhibition constant incubated for 1.5 hrs by automated gamma-counter analysis; type: cell-based
[6] = Apparent permeability in pig LLC-PK1 cells; type: ADME, cell-based, Sus scrofa
[7] = Biodistribution in male ddY mouse liver administered intravenously and measured at 30 mins postinjection by gamma counter analysis; type: ADME, organism-based; conditions: in vivo, iv, 0.5 h
[8] = Biodistribution in male ddY mouse lung administered intravenously and measured at 2 mins postinjection by gamma counter analysis; type: ADME, organism-based; conditions: in vivo, iv
[9] = Biodistribution in male ddY mouse intestine administered intravenously and measured at 10 mins postinjection by gamma counter analysis; type: ADME, organism-based; conditions: in vivo, iv
[10] = Biodistribution in male ddY mouse liver administered intravenously and measured at 10 mins postinjection by gamma counter analysis; type: ADME, organism-based; conditions: in vivo, iv
[11] = Biodistribution in male ddY mouse spleen administered intravenously and measured at 60 mins postinjection by gamma counter analysis; type: ADME, organism-based; conditions: in vivo, iv, 1 h
[12] = Biodistribution in male ddY mouse pancreas administered intravenously and measured at 60 mins postinjection by gamma counter analysis; type: ADME, organism-based; conditions: in vivo, iv, 1 h
[13] = Biodistribution in male ddY mouse brain administered intravenously and measured at 60 mins postinjection by gamma counter analysis; type: ADME, organism-based; conditions: in vivo, iv, 1 h
[14] = Biodistribution in male ddY mouse blood administered intravenously and measured at 10 mins postinjection by gamma counter analysis; type: ADME, organism-based; conditions: in vivo, iv
[15] = Biodistribution in male ddY mouse pancreas administered intravenously and measured at 2 mins postinjection by gamma counter analysis; type: ADME, organism-based; conditions: in vivo, iv
[16] = Biodistribution in male ddY mouse heart administered intravenously and measured at 2 mins postinjection by gamma counter analysis; type: ADME, organism-based; conditions: in vivo, iv
[17] = Biodistribution in male ddY mouse kidney administered intravenously and measured at 2 mins postinjection by gamma counter analysis; type: ADME, organism-based; conditions: in vivo, iv
[18] = Biodistribution in male ddY mouse kidney administered intravenously and measured at 60 mins postinjection by gamma counter analysis; type: ADME, organism-based; conditions: in vivo, iv, 1 h
[19] = Biodistribution in male ddY mouse bone administered intravenously and measured at 10 mins postinjection by gamma counter analysis; type: ADME, organism-based, Bone element; conditions: in vivo, iv
[20] = Biodistribution in male ddY mouse spleen administered intravenously and measured at 10 mins postinjection by gamma counter analysis; type: ADME, organism-based; conditions: in vivo, iv
[21] = Biodistribution in male ddY mouse pancreas administered intravenously and measured at 30 mins postinjection by gamma counter analysis; type: ADME, organism-based; conditions: in vivo, iv, 0.5 h
[22] = Biodistribution in male ddY mouse lung administered intravenously and measured at 60 mins postinjection by gamma counter analysis; type: ADME, organism-based; conditions: in vivo, iv, 1 h
[23] = Biodistribution in male ddY mouse lung administered intravenously and measured at 10 mins postinjection by gamma counter analysis; type: ADME, organism-based; conditions: in vivo, iv
[24] = Biodistribution in male ddY mouse kidney administered intravenously and measured at 30 mins postinjection by gamma counter analysis; type: ADME, organism-based; conditions: in vivo, iv, 0.5 h
[25] = Biodistribution in male ddY mouse intestine administered intravenously and measured at 60 mins postinjection by gamma counter analysis; type: ADME, organism-based; conditions: in vivo, iv, 1 h
[26] = Biodistribution in male ddY mouse liver administered intravenously and measured at 2 mins postinjection by gamma counter analysis; type: ADME, organism-based; conditions: in vivo, iv
[27] = Biodistribution in male ddY mouse stomach administered intravenously and measured per organ at 10 mins postinjection by gamma counter analysis; type: ADME, organism-based; conditions: in vivo, iv
[28] = Biodistribution in male ddY mouse bone administered intravenously and measured at 2 mins postinjection by gamma counter analysis; type: ADME, organism-based, Bone element; conditions: in vivo, iv
[29] = Biodistribution in male ddY mouse stomach administered intravenously and measured per organ at 60 mins postinjection by gamma counter analysis; type: ADME, organism-based; conditions: in vivo, iv, 1 h
[30] = Biodistribution in male ddY mouse brain administered intravenously and measured at 30 mins postinjection by gamma counter analysis; type: ADME, organism-based; conditions: in vivo, iv, 0.5 h
[31] = Biodistribution in male ddY mouse blood administered intravenously and measured at 2 mins postinjection by gamma counter analysis; type: ADME, organism-based; conditions: in vivo, iv
[32] = Biodistribution in male ddY mouse blood administered intravenously and measured at 60 mins postinjection by gamma counter analysis; type: ADME, organism-based; conditions: in vivo, iv, 1 h
[33] = Biodistribution in male ddY mouse stomach administered intravenously and measured per organ at 2 mins postinjection by gamma counter analysis; type: ADME, organism-based; conditions: in vivo, iv
[34] = Biodistribution in male ddY mouse pancreas administered intravenously and measured at 10 mins postinjection by gamma counter analysis; type: ADME, organism-based; conditions: in vivo, iv
[35] = Biodistribution in male ddY mouse liver administered intravenously and measured at 60 mins postinjection by gamma counter analysis; type: ADME, organism-based; conditions: in vivo, iv, 1 h
[36] = Biodistribution in male ddY mouse spleen administered intravenously and measured at 30 mins postinjection by gamma counter analysis; type: ADME, organism-based; conditions: in vivo, iv, 0.5 h
[37] = Biodistribution in male ddY mouse intestine administered intravenously and measured at 30 mins postinjection by gamma counter analysis; type: ADME, organism-based; conditions: in vivo, iv, 0.5 h
[38] = Biodistribution in male ddY mouse brain administered intravenously and measured at 2 mins postinjection by gamma counter analysis; type: ADME, organism-based; conditions: in vivo, iv
[39] = Biodistribution in male ddY mouse intestine administered intravenously and measured at 2 mins postinjection by gamma counter analysis; type: ADME, organism-based; conditions: in vivo, iv
[40] = Biodistribution in male ddY mouse lung administered intravenously and measured at 30 mins postinjection by gamma counter analysis; type: ADME, organism-based; conditions: in vivo, iv, 0.5 h
[41] = Biodistribution in male ddY mouse kidney administered intravenously and measured at 10 mins postinjection by gamma counter analysis; type: ADME, organism-based; conditions: in vivo, iv
[42] = Biodistribution in male ddY mouse stomach administered intravenously and measured per organ at 30 mins postinjection by gamma counter analysis; type: ADME, organism-based; conditions: in vivo, iv, 0.5 h
[43] = Biodistribution in male ddY mouse heart administered intravenously and measured at 10 mins postinjection by gamma counter analysis; type: ADME, organism-based; conditions: in vivo, iv
[44] = Biodistribution in male ddY mouse spleen administered intravenously and measured at 2 mins postinjection by gamma counter analysis; type: ADME, organism-based; conditions: in vivo, iv
[45] = Biodistribution in male ddY mouse blood administered intravenously and measured at 30 mins postinjection by gamma counter analysis; type: ADME, organism-based; conditions: in vivo, iv, 0.5 h
[46] = Biodistribution in male ddY mouse brain administered intravenously and measured at 10 mins postinjection by gamma counter analysis; type: ADME, organism-based; conditions: in vivo, iv
[47] = Biodistribution in male ddY mouse heart administered intravenously and measured at 30 mins postinjection by gamma counter analysis; type: ADME, organism-based; conditions: in vivo, iv, 0.5 h
[48] = Biodistribution in male ddY mouse bone administered intravenously and measured at 30 mins postinjection by gamma counter analysis; type: ADME, organism-based, Bone element; conditions: in vivo, iv, 0.5 h
[49] = Biodistribution in male ddY mouse bone administered intravenously and measured at 60 mins postinjection by gamma counter analysis; type: ADME, organism-based, Bone element; conditions: in vivo, iv, 1 h
[50] = Biodistribution in male ddY mouse heart administered intravenously and measured at 60 mins postinjection by gamma counter analysis; type: ADME, organism-based; conditions: in vivo, iv, 1 h

`Cc1ccc(-n2nccn2)c(C(=O)N2CCCN(c3nc4cc(Cl)ccc4o3)C[C@@H]2C)c1` showed a Ratio Ki [1] of 8.71, an IC50 [2] of 0.83 nM and an IC50 (Orexin receptor type 2 [3]) of 2 nM. For the same compound, the Ki [4] was 1.12 nM, the Ratio IC50 (Homo sapiens) was 2.4 and the Ki (Orexin receptor type 2 [5]) was 9.79 nM.

For `Cc1ccc(-n2nccn2)c(C(=O)N2CCN(c3nc4cc(Cl)ccc4o3)CC[C@H]2C)c1` [SUVOREXANT], the Papp [6] was 34.6 ×10⁻⁶ cm/s.

For `C[C@H]1CN(c2nc3ccc(F)cc3s2)CCCN1C(=O)c1cc([18F])ccc1-n1nccn1`, the Drug uptake [7] was 20.4 % ID/g, the Drug uptake [8] was 6 % ID/g and the Drug uptake [9] was 8.38 % ID/g. For the same compound, the Drug uptake [10] was 27.5 % ID/g, the Drug uptake [11] was 0.21 % ID/g and the Drug uptake [12] was 0.36 % ID/g. It also gave a Drug uptake [13] of 0.09 % ID/g, a Drug uptake [14] of 3.05 % ID/g and a Drug uptake [15] of 5.3 % ID/g. The Drug uptake [16] was 6.04 % ID/g, the Drug uptake [17] was 7.83 % ID/g and the Drug uptake [18] was 0.88 % ID/g. For the same compound, the Drug uptake [19] was 1.18 % ID/g, the Drug uptake [20] was 1.77 % ID/g and the Drug uptake [21] was 0.56 % ID/g. For the same compound, the Drug uptake [22] was 0.61 % ID/g, the Drug uptake [23] was 3.39 % ID/g and the Drug uptake [24] was 2.32 % ID/g. The Drug uptake [25] was 30.5 % ID/g, the Drug uptake [26] was 11.5 % ID/g and the Drug uptake [27] was 0.98 %ID. For the same compound, the Drug uptake [28] was 1.5 % ID/g, the Drug uptake [29] was 2.13 %ID and the Drug uptake [30] was 0.29 % ID/g. The Drug uptake [31] was 4.79 % ID/g, the Drug uptake [32] was 0.55 % ID/g and the Drug uptake [33] was 1.03 %ID. The Drug uptake [34] was 2.88 % ID/g, the Drug uptake [35] was 12.6 % ID/g and the Drug uptake [36] was 0.42 % ID/g. The Drug uptake [37] was 15.4 % ID/g, the Drug uptake [38] was 2.64 % ID/g and the Drug uptake [39] was 2.93 % ID/g. The Drug uptake [40] was 1.11 % ID/g, the Drug uptake [41] was 4.37 % ID/g and the Drug uptake [42] was 1.18 %ID. For the same compound, the Drug uptake [43] was 2.48 % ID/g, the Drug uptake [44] was 2.15 % ID/g and the Drug uptake [45] was 1.1 % ID/g. For the same compound, the Drug uptake [46] was 1.33 % ID/g, the Drug uptake [47] was 0.67 % ID/g and the Drug uptake [48] was 0.76 % ID/g. The Drug uptake [49] was 1.24 % ID/g and the Drug uptake [50] was 0.42 % ID/g.
